Assays:
HepG2 = assay: MTT viability assay, HepG2; format: cell-based; details: Homo sapiens, 48 h treatment, mean of three independent experiments
Procedure: (§1) To evaluate the cytotoxic effects of the hybrid compounds geo15 and geo140, we performed MTT assays on HeLa, K562, A549, HepG2, HT-29 and Caco2 cancer cell lines, as well as primary intestinal subepithelial myofibroblasts (SEMFs).
(§2) HeLa, K562, HT-29, Caco-2, HepG2 and A549 cancer cell lines were obtained from the American Type Culture Collection (ATCC). All cell lines were cultured at 37 °C with 5% CO2. HeLa, Caco-2, HepG2 and A549 cells were maintained in Dulbecco's modified Eagle medium (DMEM, PAN Biotech) supplemented with 10% FBS and antibiotics/antimycotics, while K562 cells were maintained in RPMI and HT-29 cells in McCoy's 5a medium (Biosera) with the same supplements.
(§3) All cells were seeded in 96-well plates (Corning, New York, USA) at density of 10^4 cells per well, except HeLa that were seeded at destiny of 2 × 10^3. After 24 hours, the cells were treated with increasing concentrations of the inhibitory compounds for 48 hours. Cytotoxic activity of parent and conjugate compounds was assessed by 3-(4,5-dimethylthiazol-2-yl)-2,5-diphenyltetrazolium bromide (MTT) assay, according to manufacturer's instructions. In brief, 100 μl of growth medium containing 0.5 mg ml^−1 MTT (Sigma-Aldrich, Darmstadt, Germany) were added to each well of a 96-well plate and incubated at 37 °C and 5% CO2 for 2 hours until the formation of visible intracellular purple crystals. Then, MTT-supplemented growth medium was discarded and 100 μl dimethyl sulfoxide (Sigma-Aldrich, Darmstadt, Germany) were added per well for solubilization of dye. Absorbance was then measured on a microplate reader (Diareader EL 800; Dialab, Wr. Neudorf, Austria) at 570 nm with a reference wavelength at 660 nm.

[1] = test system: primary intestinal subepithelial myofibroblasts (SEMFs); assay: MTT viability assay, primary SEMFs; format: cell-based; details: Homo sapiens, 48 h treatment, mean of three independent experiments
Text: as §1
Intestinal myofibroblast isolation: primary intestinal subepithelial myofibroblasts were isolated from freshly collected intestinal mucosa biopsies as previously described,[28] from healthy individuals undergoing endoscopy for reasons of surveillance, after obtaining written and informed consent. Briefly, 4–6 pieces of intestinal tissue were collected in ice-cold Hank's Balanced Salt Solution (HBSS; Biosera, Nuaille, France) containing Ca^2+/Mg^2+ supplemented with P/S/A/G: penicillin (100 U ml^−1), streptomycin (100 μg ml^−1), amphotericin (2.5 μg ml^−1) and gentamycin (50 μg ml^−1), followed by 15 minute washes with HBSS with and without Ca^2+/Mg^2+ to remove possible contaminants. Next tissue was de-epithelialized by a 15 minute incubation in HBSS without Ca^2+/Mg^2+ containing 1 mM dithiothreitol (DTT, Sigma-Aldrich, Darmstadt, Germany) followed by 3× 30 minute washes in HBSS supplemented with 1 mM ethylenediaminetetraacetic acid (EDTA, Sigma-Aldrich, Darmstadt, Germany) at 37 °C. Tissue was cultured in RPMI 1640 (PAN Biotech, Aidenbach, Germany) supplemented with 10% fetal bovine serum (FBS; Biosera, Nuaille, France) and P/S/A/G for as long as 30 days at 37 °C and 5% CO2. After colonies of myofibroblasts reached 30% confluency, cells were detached and consequently cultured in 75 cm^2 flasks in Dulbecco's modified Eagle medium (DMEM, 4.5 g l^−1 glucose; PAN Biotech, Aidenbach, Germany) with 10% fetal bovine serum and P/S/A.
as §3

HeLa = assay: MTT viability assay, HeLa; format: cell-based; details: Homo sapiens, 48 h treatment, mean of three independent experiments
Procedure: as §1, §2, §3

HT-29 = assay: MTT viability assay, HT-29; format: cell-based; details: Homo sapiens; HT-29, MTT, 48 h treatment, mean of three independent experiments
Procedure: as §1, §2, §3

SRPK1 in HeLa cells = assay: Immunofluorescence of SRPK1 subcellular localization; format: cell-based
Procedure: In a following step the effect of geo140 was tested on the subcellular distribution of SRPK1 in HeLa cells. To address this issue, a series of immunofluorescence experiments was performed to assess the effect of geo140, relative to its parent compounds, JH-VII-139-1 and 5-FU on SRPK1 localization.
Fig. 6 Fluorescent patterns of SRPK1 in HeLa cells treated with JH-VII-139-1, 5-FU, and geo140 (for the indicated concentrations and time periods). SRPK1 was detected using an anti-SRPK1 monoclonal antibody (Alexa488-green fluorescence) while nuclei were stained with PI (red fluorescence). Scale bar: 10 μm.
HeLa cells (3 × 10^4 cells per well) were seeded on glass coverslips in 24-well plates. After 24 hours, cells were treated with the indicated concentrations of inhibitors for 24 or 48 hours. Following incubation, samples were fixed with 4% paraformaldehyde in PBS for 20 minutes at room temperature. Paraformaldehyde was quenched with 100 mM Tris-HCl (pH 7.5), and cells were permeabilized with 0.2% Triton X-100 in PBS for 10 minutes. Blocking was performed with 0.5% fish skin gelatin in PBS. Cells were then probed with a primary antibody (anti-SRPK1 monoclonal, 1 : 100 dilution, BD Biosciences, San Jose, CA, USA) and a secondary antibody (Alexa488-conjugated goat anti-mouse, 1 : 400 dilution, Molecular Probes, Eugene, OR, USA), followed by DNA staining with propidium iodide, as previously described.[25] Coverslips were mounted with mounting medium (0.01% p-phenylenediamine and 50% glycerol in PBS) and visualized using a Nikon confocal microscope with EZ-C1 3.20 software.

A549 = assay: MTT viability assay, A549; format: cell-based; details: Homo sapiens, 48 h treatment, mean of three independent experiments
Procedure: as §1, §2, §3

K562 = assay: MTT viability assay, K562; format: cell-based; details: Homo sapiens, 48 h treatment, mean of three independent experiments
Procedure: as §1, §2, §3

Caco2 = assay: MTT viability assay, Caco2; format: cell-based; details: Homo sapiens, Caco-2, 48 h treatment, mean of three independent experiments
Procedure: as §1, §2, §3

[2] = Stability in human plasma (LC-ESI-MS); format: in vitro ADME; details: 37 °C
Procedure: (§4) The stability of SRPK1-targeting conjugates geo15 and geo140 was assessed at pH 5.2 and 7.4, as well as in cell culture medium (DMEM) and human plasma. All experiments were conducted at 37 °C, with samples analysed by LC-ESI-MS at specific time points. […] The half-lives of the conjugates ranged from several minutes to several hours, is discussed below.
(§5) Chemical stability experiments were conducted using LC-MS Method 4, except for the
(§6) pH stability studies of compound geo15, which were performed using LC-MS Method
(§7) 3. Representative chromatograms are provided for each experiment. geo15:
(§8) Figure S16. Chemical stability assay LC chromatograms for geo15.
(§9) Figure S17. Chemical stability assay LC chromatograms for geo140.

[3] = Chemostability in pH 5.2 and 7.4 buffers and DMEM (LC-ESI-MS); format: physicochemical; details: 37 °C
Procedure: as §4, §5, §6, §7, §8, §9

HeLa cells = assay: Inverted phase-contrast microscopy of treated cells; format: cell-based; details: 10 μM, phase-contrast microscope
Procedure: A similar morphology of geo140-treated cells was also observed using an inverted phase-contrast microscope.
Fig. 7 Microscopic view of control HeLa cells and treated with 10 μM geo140, taken at 10× or 40× magnification as indicated, using an inverted phase-contrast microscope.

GST-SRPK2 = biological target: T1, GST-SRPK2 (Homo sapiens, UniProt P78362); assay: In vitro kinase assay, GST-SRPK2; format: biochemical; details: substrate GST-LBRNt(62–92), 25 μM ATP
T1 construct: made in house; host or cells: bacteria (pGEX-2T vector)
Procedure: (§10) The inhibitory activity of geo140 and JH-VII-139-1 against SRPK1 and SRPK2 was assessed using in vitro kinase assays (Fig. 5). […] The IC50 values summarized in Panel E indicate that both JH-VII-139-1 and the hybrid compound geo140 act as effective inhibitors of SRPK-mediated phosphorylation, with however, differential selectivity between SRPK1 and SRPK2.
(§11) Fig. 5 Phosphorylation of 1 μg GST-LBRNt(62–92) by 0.5 μg GST-SRPK1 or 0.5 μg GST-SRPK2 in the presence of increasing concentrations of geo140 (A and B, respectively) or in the presence of increasing concentrations of JH-VII-139-1 (C and D, respectively). Panel C was taken from a previous publication of the authors.[2] The samples were analyzed by SDS-PAGE on 12% gels, stained with Coomassie blue and autoradiographed. Only the relevant part of the autorad corresponding to the phosphorylated substrate is shown. E. IC50 values of geo140 and JH-VII-139-1 against GST-SRPK1 and GST-SRPK2.
(§12) Human SRPK1, SRPK2, and a turkey LBR N-terminal fragment (amino acids 62–92; LBRNt(62–92)) were expressed as GST-fusion proteins in bacteria using the pGEX-2T vector (Amersham Biosciences) as previously described.[15] […] Phosphorylated GST-LBRNt(62–92) was detected by autoradiography (Super RX film, Fujifilm). Incorporated radioactivity was quantified by scintillation counting of the excised SDS-PAGE gel bands.

GST-SRPK1 = biological target: T2, GST-SRPK1 (Homo sapiens, UniProt Q96SB4); assay: In vitro kinase assay, GST-SRPK1; format: biochemical; details: substrate GST-LBRNt(62–92), 25 μM ATP
T2 construct: made in house; host or cells: bacteria (pGEX-2T vector)
Procedure: as §10, §11, §12

T2 sequence (Q96SB4 whole entry): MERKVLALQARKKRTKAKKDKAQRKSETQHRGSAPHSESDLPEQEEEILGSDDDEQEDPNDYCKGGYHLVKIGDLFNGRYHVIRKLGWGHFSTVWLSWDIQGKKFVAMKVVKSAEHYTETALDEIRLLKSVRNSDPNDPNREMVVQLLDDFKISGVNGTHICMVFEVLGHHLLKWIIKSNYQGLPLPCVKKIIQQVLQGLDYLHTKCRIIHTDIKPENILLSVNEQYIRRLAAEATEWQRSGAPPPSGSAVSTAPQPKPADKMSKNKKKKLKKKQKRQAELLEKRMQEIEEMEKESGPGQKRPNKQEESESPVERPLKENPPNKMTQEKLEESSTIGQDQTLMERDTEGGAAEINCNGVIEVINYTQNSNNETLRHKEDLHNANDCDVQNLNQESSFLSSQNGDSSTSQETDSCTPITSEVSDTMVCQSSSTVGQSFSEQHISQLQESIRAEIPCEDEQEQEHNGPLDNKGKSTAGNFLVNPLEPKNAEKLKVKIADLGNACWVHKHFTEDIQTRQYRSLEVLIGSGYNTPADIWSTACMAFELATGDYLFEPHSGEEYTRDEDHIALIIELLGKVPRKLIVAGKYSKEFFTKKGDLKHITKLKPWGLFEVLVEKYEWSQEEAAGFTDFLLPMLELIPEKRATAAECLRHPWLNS
T1 sequence (P78362 whole entry): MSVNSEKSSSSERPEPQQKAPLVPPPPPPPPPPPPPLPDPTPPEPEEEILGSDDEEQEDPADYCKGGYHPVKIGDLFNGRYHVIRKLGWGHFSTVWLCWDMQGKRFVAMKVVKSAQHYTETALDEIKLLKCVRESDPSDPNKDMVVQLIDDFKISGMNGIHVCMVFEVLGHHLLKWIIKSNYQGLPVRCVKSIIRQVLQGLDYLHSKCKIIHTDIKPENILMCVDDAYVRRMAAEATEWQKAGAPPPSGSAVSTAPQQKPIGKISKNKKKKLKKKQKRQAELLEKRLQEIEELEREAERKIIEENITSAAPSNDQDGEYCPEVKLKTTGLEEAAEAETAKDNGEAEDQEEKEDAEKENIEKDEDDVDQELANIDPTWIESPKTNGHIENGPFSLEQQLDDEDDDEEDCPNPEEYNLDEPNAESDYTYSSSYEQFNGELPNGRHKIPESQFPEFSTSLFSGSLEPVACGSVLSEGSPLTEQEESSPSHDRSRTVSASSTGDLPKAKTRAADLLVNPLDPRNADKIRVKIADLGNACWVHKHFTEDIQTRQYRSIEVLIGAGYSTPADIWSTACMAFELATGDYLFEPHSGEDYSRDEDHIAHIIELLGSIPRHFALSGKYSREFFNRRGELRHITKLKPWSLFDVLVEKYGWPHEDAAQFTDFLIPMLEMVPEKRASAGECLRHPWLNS

| Compound | EC50 (HepG2) [µM] | EC50 [1] [µM] | EC50 (HeLa) [µM] | EC50 (HT-29) [µM] | EC50 (A549) [µM] | EC50 (K562) [µM] | EC50 (Caco2) [µM] | half-life ([3]; pH 7.4 buffer) [h] | also measured |
| --- | --- | --- | --- | --- | --- | --- | --- | --- | --- |
| O=c1[nH]cc(F)c(=O)[nH]1 [5-FU, 5-fluorouracil, reference compound] | > 50 | > 50 | 25.7 | 3.62 | 15.2 | > 50 | > 50 | – | effect on SRPK1 subcellular localization (SRPK1 in HeLa cells; 20 μM, 24 h): more diffuse SRPK1 staining pattern, with some nuclear translocation of the kinase; effect on SRPK1 subcellular localization (SRPK1 in HeLa cells; 48 h): almost complete nuclear translocation of SRPK1 |
| Nc1ccn([C@@H]2O[C@H](CO)[C@@H](O)C2(F)F)c(=O)n1 [Gemcitabine, gemcitabine, reference compound] | 31.4 | > 50 | 6.7 | 28.7 | > 50 | > 50 | > 50 | – | – |
| COc1cc(/C=C(\C#N)C(=O)Nc2nnc(C(F)(F)F)s2)ccc1OCc1ccc(NC(=O)CNC(=O)OC[C@H]2O[C@@H](n3ccc(N)nc3=O)C(F)(F)[C@@H]2O)cc1 [geo15] | > 50 | > 50 | 33.1 | 38.4 | > 50 | > 50 | > 50 | > 48 | detection of retro-Knoevenagel reaction product 21 [2]: not observed; half-life [2]: > 48 h; half-life ([3]; DMEM cell culture medium, DMEM): > 48 h; detection of retro-Knoevenagel reaction product 21 ([3]; DMEM): not observed; concentration of the conjugate remaining ([3]; during the 24 hour period, overall stability profile (all media)): above 50%; detection of retro-Knoevenagel reaction product 21 ([3]; pH buffer media): small percentage; release of SRPIN803 via the 1,6-elimination mechanism ([3]; stability media): no release of SRPIN803 |
| CCc1cc2c(cc1-c1ccn(C(=O)NCCOCCOCCNC(=O)Cn3c(=O)[nH]cc(F)c3=O)n1)C(C)(C)c1[nH]c3cc(C#N)ccc3c1C2=O [geo140, (JH-VII-139-1)–(5-FU) conjugate] | 27.1 | 21.5 | 11.7 | 19.3 | > 50 | 13.7 | 31.2 | > 48 | SRPK1 distribution in interphase cells (SRPK1 in HeLa cells): SRPK1 retained a cytoplasmic distribution similar to that seen in untreated controls; number of mitotic cells (SRPK1 in HeLa cells; immunofluorescence): significant increase in the number of mitotic cells; mitotic cells (round shape, distinct chromosomal structures) (HeLa cells): significant increase in mitotic cells; reduction in initial concentration ([2]; after 24 hours): 10–20%; IC50 (GST-SRPK2): 7.9 µM; IC50 (GST-SRPK1): 0.0221 µM; reduction in initial concentration ([3]; DMEM, after 24 hours): 10–20%; half-life ([3]; pH 5.2 buffer): > 48 h |

Source: publication PMC12574689, “Synthesis of novel SRPK1-targeting hybrid compounds incorporating antimetabolites for cancer therapy” (RSC Medicinal Chemistry, 2025)
